Key:
[1] = tested on: ATF4 target genes in H929 multiple myeloma cells; experiment: H929 UPR/ISR target genes quantitative RT-PCR; format: cell-based
Description: H929 multiple myeloma cells (catalog #CRL-9068) multiple myeloma cells were obtained from the American Type Culture Collection (ATTC, Manassas, VA). Cells were grown in RPMI-1640 medium supplemented with 20% heat-inactivated fetal bovine serum (catalog #A3840002, ThermoFisher Scientific, Waltham, MA), 1% Penicillin/Streptomycin/L-Glutamine (catalog #10378016, ThermoFisher Scientific, Waltham, MA), and 0.05 mM 2-mercaptoethanol (catalog #21985-023, ThermoFisher Scientific, Waltham, MA) at 37° C., 5% CO2, and 95% humidity. Cells were expanded until reaching 70-95% confluency at which point they were subcultured or harvested for assay use. Cells were seeded in 6-well culture plate at 3.0×10^6 cells per well in 2 mL complete growth medium and incubated with indicated concentrations of Compound 2 at 37° C., 5% CO2, and 95% humidity for 4 h. At the end of the incubation, cells were washed with PBS (Sigma) and RNA was extracted using RNeasy® Plus Kits (Qiagen, Germantown, MD). cDNA was synthesized using the High-Capacity cDNA Reverse Transcription Kit (Applied Biosciences, Beverly Hills, CA), and quantitative PCR was performed on a QuantStudio 3 (Applied Biosciences) using TaqMan Assays (Table 1, Thermo) and TaqMan Fast Advanced Master Mix (Thermo) according to manufacturer's specifications.

[2] = tested on: MV-4-11 xenograft; experiment: MV-4-11 xenograft efficacy model; format: in vivo, mice; settings: 14 days of dosing
Description: The MV-4-11 xenograft model was performed in compliance with all the laws, regulations and guidelines of the National Institutes of Health (NIH) and with the approval of the Animal Care and Use Committee of Crown Bioscience (Taicang, China), an AAALAC accredited facility. Food and water was provided ad libitum. […] Female NOD/SCID (6-9 weeks old; Vital River Laboratories Research Models and Services (Beijing, China)) were inoculated subcutaneously right front flank region with five million cells in Dulbecco's Phosphate Buffered Saline:Matrigel (1:1), using a 27-gauge needle and syringe. When tumor burdens reached 150 mm 3 on average on day 7, mice were randomly assigned into groups such that the mean tumor burden for all groups was within 10% of the overall mean tumor burden for the study population. Groups were treated on days 7-21 as follows: vehicle control (dosed orally and IP to mimic combination groups) (n=10); Compound 2 dosed orally at 50 mg/kg/day of Compound 2 (n=10); Leunase (Kyowa Kirin, Japan) dosed IP at 1000 U/kg/day (n=10); Leunase (Kyowa Kirin, Japan) dosed IP at 1000 U/kg/day (n=10) and Compound 2 dosed orally at 50 mg/kg/day of Compound 2 (n=10). Tumor volume and body weight were measured three time per week. Tumor burden (mg) was estimated from caliper measurements by the formula: tumor burden (mg=mm 3)=(length×width 2)/2.

[3] = tested on: HT-1080 spheroids; experiment: Spheroid Western blot assay, HT-1080; format: cell-based
Description: NSCLC cell lines H358 (catalog #CRL-5807) and H2030 (catalog #CRL-5914), and fibrosarcoma cell line HT-1080 (catalog […]) were obtained from the American Type Culture Collect (ATTC, Manassas, VA). Cells were grown in RPMI-1640 medium supplemented with 10% heat-inactivated fetal bovine serum and 1% Penicillin/Streptomycin/L-Glutamine (Invitrogen, Carlsbad, CA) at 37° C., 5% CO2, and 95% humidity and maintained at 50-80% confluency until use. Cells were plated at 500,000 cells/well in 24-well Elplasia plates (Corning, Glendale, AZ) with complete growth media at 1 mL/well and incubated overnight at 37° C., 5% CO2, and 95% humidity to form spheroids. The next day, serial dilutions of test compounds were prepared in complete growth media and 500 μL existing media was removed from each well and replaced with fresh media containing compound titers. Spheroids were then incubated with test compounds for 4 hours or 24 hours under the same conditions. […] Western blots were performed to quantify phospho-GCN2 (R&D Systems, Minneapolis, MN), ATF4, CHOP, cleaved PARP, cleaved Caspase 3 and 7, and beta-Actin (Cell Signaling Technology, Danvers, MA). […]

[4] = tested on: H358 solid tumor spheroids; experiment: Spheroid proliferation assay, H358; format: cell-based
Description: Non Small Cell Lung Cancer (NSCLC) cell lines H358 (catalog #CRL-5807) and H2030 (catalog #CRL-5914), and fibrosarcoma line HT-1080 (catalog […]) were obtained from the American Type Culture Collect (ATTC, Manassas, VA). Cells were grown in RPMI-1640 medium supplemented with 10% heat-inactivated fetal bovine serum and 1% Penicillin/Streptomycin/L-Glutamine (Invitrogen, Carlsbad, CA) at 37° C., 5% CO2, and 95% humidity and maintained at 50-80% confluency until use. 500-1000 cells were plated in 96-well ultra-low attachment plates (Corning, Glendale, AZ) with complete growth media at 80 μL/well and incubated overnight at 37° C., 5% CO2, and 95% humidity to form spheroids. The next day, serial dilutions of test compounds were prepared in complete growth media and 20 μL/well media containing compound titers was added to spheroids in triplicate. Spheroids were then incubated with test compounds for 5 days under the same conditions. At the end of the incubation, spheroids were lysed with 100 μL/well CellTiter-Glo 3D Viability Assay (Promega, Madison, WI) and luminescence was detected using Synergy2 or equivalent reader (Biotek, Winooski, VT). Data was analyzed using GraphPad Prism software (GraphPad, San Diego, CA) to calculate IC50 values.

Cn1cc(-c2cccc(NS(=O)(=O)c3cc(Cl)cc(CO)c3Cl)c2F)c2c(N)ncnc21 [Example 2, N-(3-(4-amino-7-methyl-7H-pyrrolo[2,3-d]pyrimidin-5-yl)-2-fluorophenyl)-2,5-dichloro-3-(hydroxymethyl)benzenesulfonamide]
maximum stimulation for ATF4 (gene expression) ([1]; 4 h, fold change over DMSO): ~3 folds
maximum stimulation for CHOP (gene expression) ([1]; 4 h, fold change over DMSO): ~10 folds
maximum stimulation for GADD34 (gene expression) ([1]; 4 h, fold change over DMSO): ~3 folds
maximum stimulation for GPT2 (gene expression) ([1]; 4 h, fold change over DMSO): ~3
maximum stimulation for VEGFA (gene expression) ([1]; 4 h, fold change over DMSO): ~2 folds
concentrations at which ATF4 target gene expression reverted to basal levels ([1]; FIG. 4, inhibitory phase): ≥ 370 nM
mean tumor growth inhibition ([2]; 50 mg/kg/day combined with Leunase): 54%
effect on tumor growth, single agent ([2]; 50 mg/kg/day orally): no significant effect on tumor growth
upregulation of ATF4 (Western blot quantification) [3]: ≤ 15 fold
IC50 ([4]; Homo sapiens, NCI-H358, 120 h, 5 days, FIG. 11B, read-out: inhibition of cell proliferation IC50, single agent): 10 nM
spheroid growth, combination treatment ([4]; with 3.3 nM sotorasib, 96 h, FIG. 12B): greater spheroid regression compared to either single agent

— patent US20230382915A1, “GCN2 AND PERK KINASE INHIBITORS AND METHODS OF USE THEREOF” (Deciphera Pharmaceuticals, LLC, priority 2021, published 2023)
